Experimental findings from patent US11479560B2, “OX2R compounds” (Board of Regents, The University of Texas System, priority 2018, dated 2022) are described below.

One series is described as follows: in vitro. Particulars: human, Caco-2.
A short description of series [1]: Plasma and brain PK (IV / IP dosing).
The nature of series [2]: Plasma and brain PK (5 mg/kg IV). It is filed as in vivo. Particulars: female CD-1 mice; for Tmax / Cmax / AUC(0-t): mouse; for AUC(0-t): read-out: Plasma AUClast.
The next series in a line: Solubility remark. Particulars: remark in words. It is filed as physicochemical.
Series [3] is described as follows: BBB penetration (method not described). As to conditions: brain / plasma, iv, 5 mg/kg; read-out: unlabelled value after the PK data (matches brain/plasma AUClast ratio, 5mpk IV).
The nature of another series: Microsomes stability. It is filed as in vitro ADME.
Where [4] appears, read: brain, read-out: Brain Tmax (converted).

The structures appear in SMILES notation.

In “in vitro”, `Cc1ccc(CC(CNC(=O)CF)n2c(=N)n(Cc3ccc(C)cc3)c3ccccc32)cc1` (centres unmarked) [ww5-308] had a Papp A→B of 3.05 ×10⁻⁶ cm/s and a Papp B→A of 8.72 ×10⁻⁶ cm/s.
As for `Br.Cc1ccc(CC(C(=O)N2CC(C#N)C2)n2c(=N)n(C(C)c3ccc(C)cc3)c3cccnc32)cc1` (single isomer, unassigned) [WZ-II-253], in series [1] (Brain PK, 5 mg/Kg (5mpk) IV), the Cl_F_obs is on record as 9.5 mL/min and the Vz_F_obs is 642 mL,. Also, in series [1] (Plasma PK, 5 mg/Kg (5mpk) IV), the Cl_F_obs is 3.86 mL/min and the Vz_F_obs was 221 mL. In addition, in series [1] (brain, iv, 5 mg/kg), the AUC(0-t) was 209 ng·h/mL, the Cmax turned out to be 218 ng/mL, the Tmax is 10 min and the half-life was determined as 47 min. For the same compound, in series [1] (plasma, iv, 5 mg/kg), the AUC(0-t) was determined as 518 ng·h/mL, the Cmax is 651 ng/mL, the Tmax was determined as 10 min and the half-life was found to be 40 min.
For `Cc1ccc(CC(CNC(=O)CO)n2c(=N)n([C@@H](C)c3ccc(C)cc3)c3ccccc32)cc1` (some centres unmarked) [ww5-189], in series [2] (brain), the “Brain AUClast” value came to 11291.545 ng·min/mL, the “Brain Cmax” value is on record as 15.29 ng/mL and the “Brain HL_Lambda_z” value was found to be 728.6 min. Further, in series [2] (setting [4]), the Tmax was 30 min. For the same compound, in series [2] (plasma), the peak level (Cmax) was 600 ng/mL, the AUC(0-t) is 691 ng·h/mL, the “Plasma Cl_F_obs” value worked out at 2.72 mL/min and the “Plasma HL_Lambda_z” value was 230.4 min. In addition, the “Plasma Vz_F_obs” value in series [2] (plasma) is 904.1 mL. Further, the time of peak concentration (Tmax) in series [2] (plasma, read-out: Plasma Tmax) turned out to be 10 min.
In series [1] (Brain PK, 5 mg/Kg (5mpk) IV), `Br.Cc1ccc(C[C@@H](C(=O)N2CC3(COC3)C2)n2c(=N)n(C(C)c3ccc(C)cc3)c3ccccc32)cc1` (stereo partly drawn) [WZ-II-151, (2S)-2-(2-imino-3-(1-(p-tolyl)ethyl)-2,3-dihydro-1H-benzo[d]imidazol-1-yl)-1-(2-oxa-6-azaspiro[3.3]heptan-6-yl)-3-(p-tolyl)propan-1-one] returned a Cl_F_obs of 22.9 mL/min and a Vz_F_obs of 8876 mL. In series [1] (Plasma PK, 5 mg/Kg (5mpk) IV), this compound registered a Cl_F_obs of 2.39 mL/min and a Vz_F_obs of 453 mL. In series [1] (brain, iv, 5 mg/kg), the AUC(0-t) was 93.1 ng·h/mL, the peak level (Cmax) was 22.7 ng/mL, the Tmax came to 10 min and the half-life stood at 269 min. Also, in series [1] (plasma, iv, 5 mg/kg), the AUC(0-t) was 908 ng·h/mL, the Cmax stood at 869 ng/mL, the Tmax is 10 min and the half-life stood at 131 min.
For `C/N=c1\n(Cc2ccc(C)cc2)c2ccccc2n1C(CO)Cc1ccc(C)cc1` (centres unmarked) [ww4-276], in the series “in vitro”, the Papp A→B came out at 2.19 ×10⁻⁶ cm/s, the Papp B→A amounted to 5.47 ×10⁻⁶ cm/s and the efflux ratio came out at 2.5.
In the case of `Cc1ccc(Cn2c(=N)n(C(CO)Cc3cc[nH]c(=O)c3)c3ccccc32)cc1` (centres unmarked) [ww4-89], in “Solubility remark”, the solubility result was “solubility issue along with tauto- meriza- tion, only proton NMR and LC-MS”.
For `Br.COCC(Cc1ccc(C)cc1)n1c(=N)n(C(C)c2ccc(C)cc2)c2cccnc21` (single isomer, unassigned) [WZ-II-149], the Kp in series [3] was 1.13. The Cl_F_obs in series [1] (Brain PK, 5 mg/Kg (5mpk) IV) is given as 1491.875 mL/min; in series [1] (Brain PK, 10 mpk IP) it was 24837.56 mL/min; in series [1] (Plasma PK, 5 mg/Kg (5mpk) IV), 1689.5566 mL/min; in series [1] (Plasma PK, 10 mpk IP), 3706.43 mL/min. Also, the Vz_F_obs was 286490.1 mL in series [1] (Brain PK, 5 mg/Kg (5mpk) IV); 2306714 mL in series [1] (Brain PK, 10 mpk IP); 101565.51 mL in series [1] (Plasma PK, 5 mg/Kg (5mpk) IV); 208114 mL, in series [1] (Plasma PK, 10 mpk IP). In addition, the HL_Lambda_z in series [1] (Brain PK, 10 mpk IP) worked out at 64.37 min; in series [1] (Plasma PK, 10 mpk IP), 38.92 min. In addition, the AUC(0-t) in series [1] (brain, ip, 10 mg/kg) was 134 ng·h/mL; in series [1] (brain, iv, 5 mg/kg), 1280 ng·h/mL; in series [1] (plasma, ip, 10 mg/kg), 1000 ng·h/mL; in series [1] (plasma, iv, 5 mg/kg), 1130 ng·h/mL. The Cmax was 77.8 ng/mL in series [1] (brain, ip, 10 mg/kg); 1300 ng/mL in series [1] (brain, iv, 5 mg/kg); 638 ng/mL in series [1] (plasma, ip, 10 mg/kg); 1050 ng/mL in series [1] (plasma, iv, 5 mg/kg). In addition, the Tmax in series [1] (brain, ip, 10 mg/kg) stood at 10 min; in series [1] (brain, iv, 5 mg/kg), 10 min; in series [1] (plasma, ip, 10 mg/kg) it was 10 min; in series [1] (plasma, iv, 5 mg/kg), 10 min. Besides, the half-life stood at 133 min in series [1] (brain, iv, 5 mg/kg) and 41.7 min in series [1] (plasma, iv, 5 mg/kg).
In the series “Microsomes stability”, `COCC(Cc1ccc(C)cc1)n1c(=N)n(C(c2ccc(C)cc2)C2CC2)c2ccccc21` (single isomer, unassigned) [ww6-61] showed a microsomal CLint of 17 µL/min/mg. Besides, the half-life in the series “Microsomes stability” (read-out: Microsomes stability T1/2) worked out at 19 min. Further, in series [2] (brain), the “Brain AUClast” value came to 38968.815 ng·min/mL, the “Brain Cmax” value is recorded as 143.31 ng/mL and the “Brain HL_Lambda_z” value worked out at 134.1 min. For the same compound, in series [2] (setting [4]), the Tmax was 30 min. In series [2] (plasma), the Cmax came out at 841 ng/mL, the AUC(0-t) worked out at 986 ng·h/mL, the “Plasma Cl_F_obs” value is listed as 1.922 mL/min and the “Plasma HL_Lambda_z” value is recorded as 74.04 min. Besides, the “Plasma Vz_F_obs” value in series [2] (plasma) worked out at 205.3 mL. For the same compound, in series [2] (plasma, read-out: Plasma Tmax), the Tmax is 10 min.
